Drawing on paper PMC5476731, “Molecular Basis of N,N-Diethyl-3-Methylbenzamide (DEET) in Repelling the Common Bed Bug, Cimex lectularius” (Frontiers in Physiology, 2017), this text covers EC50 for 1 compound.

Common to all, as to test: two-electrode voltage clamp, Xenopus oocytes
Holding throughout (format): cell-based, Cimex lectularius

One experiment has as its system T1, OR36/ORCO.
T1 construct: cRNA (pT7Ts vector) co-injected with ORCO into Xenopus laevis oocytes; with Odorant receptor coreceptor
The note with it: agonist; co-expressed ORCO; -80 mV; pH 7.6 Ringer; text rounds to 7.1 × 10^−6.

The test system of a further experiment is T2, OR37/ORCO.
T2 construct: cRNA (pT7Ts vector) co-injected with ORCO into Xenopus laevis oocytes; with Odorant receptor coreceptor
Conditions: agonist; co-expressed ORCO; -80 mV; pH 7.6 Ringer; text b25 prints 6.5 × 10^−6 (discrepant).

Another experiment has as its system T3, OR20/ORCO.
T3 construct: cRNA (pT7Ts vector) co-injected with ORCO into Xenopus laevis oocytes; with Odorant receptor coreceptor
The note with it: agonist; co-expressed ORCO; -80 mV; pH 7.6 Ringer; text rounds to 7.5 × 10^−6.

For `CCN(CC)C(=O)c1cccc(C)c1` [DEET, N,N-Diethyl-3-Methylbenzamide], the EC50 in the experiment with OR36/ORCO is 7.096 × 10^−6 v/v; with OR37/ORCO it was 6.684 × 10^−6 v/v; in the experiment on OR20/ORCO, 7.468 × 10^−6 v/v.
